The text below walks through data of patent US20210353579A1, “HIGH PENETRATION COMPOSITIONS AND USES THEREOF” (Techfields Pharma Co., Ltd., priority 2006, published 2021).

In data set [1] the test system is rats (SLAC/GK, type 2 diabetes). Description: Blood lipid in type 2 diabetes rats, transdermal. The data set is classed as in vivo, rat. To be noted: for Cholesterol (HDL), Baseline / Cholesterol (total), Baseline / Triglycerides, Baseline: equal to 20 mg/kg of NSAIAs; for Cholesterol (HDL), Average / Cholesterol (total), Average / Triglycerides, Average: end of the fifth week, equal to 20 mg/kg of NSAIAs once per day. The text has this: (§1) HPPs lower blood glucose level in rat models (SLAC/GK, type 2 diabetes, n=7). 50% acetone solution of diethylaminoethyl acetylsalicylate.acetylsalicylic acid salt (P-1, in acetone); 4-acetamidophenyl salicylyldimethylaminobutyrate.HCl (P-6), diethylaminoethyl 5-(2,4-difluorophenyl) acetylsalicylate.5-(2,4-difluorophenyl).acetylsalicylic acid salt (P-8), diethylaminoethyl salicylsalicylate.AcOH (P-9), diethylaminoethyl salicylate.AcOH (P-10), diethylaminoethyl 5-acetamido-acetylsalicylate (P-58), diethylaminoethyl acetylsalicylsalicylate.acetylsalicylsalicylic acid salt (P-59), diethylaminoethyl acetylsalicylsalicylate.acetylsalicylsalicylsalicylic acid salt (P-60) (equal to of 20 mg/kg of NSAIAs) are administered transdermally to the backs (about 1.5 cm^2) of rats (fur was shaved) once per day (at 8 am) for 5 weeks. The blood glucose levels are measured once every 3 days at 3 pm (no fasting) from the second week to the fifth week (Table 24). The blood lipid levels are measured at the end of the fifth week (Table 25).

Data set [2] has the same test system. Description: Blood glucose in type 2 diabetes rats, oral with food. The data set is classed as in vivo, rat. To be noted: for Blood glucose, Diabetic rats, Average: average second to fifth week, no fasting, equal to 20 mg/kg of NSAIAs every day for 5 weeks; for Blood glucose, Diabetic rats, Baseline: equal to 20 mg/kg of NSAIAs. The text has this:
(§2) 20% acetone solution of diethylaminoethyl acetylsalicylate.acetylsalicylic acid salt (P-1, in acetone); 4-acetamidophenyl salicylyldimethylaminobutyrate.HCl (P-6), diethylaminoethyl 5-(2,4-difluorophenyl) acetylsalicylate.5-(2,4-difluorophenyl) acetylsalicylic acid salt (P-8), diethylaminoethyl salicylsalicylate.AcOH (P-9), diethylaminoethyl salicylate.AcOH (P-10), diethylaminoethyl 5-acetamido-acetylsalicylate (P-58), diethylaminoethyl acetylsalicylsalicylate. acetylsalicylsalicylic acid salt (P-59), diethylaminoethyl acetylsalicylsalicylate. acetylsalicylsalicylsalicylic acid salt (P-60) (equal to of 20 mg/kg of NSAIAs) were mixed with food and were orally administered to the rats (SLAC/GK, type 2 diabetes, n=7) with food every day for 5 weeks. The blood glucose levels were measured once every 3 days at 3 pm (no fasting) from the second week to the fifth week. The blood lipid levels were measured at the end of the fifth week.

The test system of data set [3] is normal rats. Description: Blood glucose in normal rats, transdermal. Type of data set: in vivo, rat. The settings on record: for Blood glucose, Average: normal rats (second Average line of Table 24), average second to fifth week, equal to 20 mg/kg of NSAIAs once per day; for Blood glucose, Baseline: normal rats (second Baseline line of Table 24), equal to 20 mg/kg of NSAIAs.
Source text: as §1, with “25). […]” for “25).”

Data set [4] has as its system rats (SLAC/GK, type 2 diabetes). As to the kind of experiment: Blood lipid in type 2 diabetes rats, oral with food. Type of data set: in vivo, rat. To be noted: for Cholesterol (HDL), Baseline / Cholesterol (total), Baseline / Triglycerides, Baseline: equal to 20 mg/kg of NSAIAs; for Cholesterol (HDL), Average / Cholesterol (total), Average / Triglycerides, Average: end of the fifth week, equal to 20 mg/kg of NSAIAs every day.
Source text: as §2

Data set [5] has the same test system. Description: Blood glucose in type 2 diabetes rats, transdermal. The data set is classed as in vivo, rat. To be noted: diabetic rats (SLAC/GK); for Blood glucose, Average: average second to fifth week, no fasting, equal to 20 mg/kg of NSAIAs once per day for 5 weeks; for Blood glucose, Baseline: equal to 20 mg/kg of NSAIAs once per day.
Source text: as §1

Data set [6] has as its system normal rats. Description: Blood glucose in normal rats, oral with food. The data set is classed as in vivo, rat. The settings on record: for Blood glucose, Normal rats, Average: average second to fifth week, equal to 20 mg/kg of NSAIAs every day; for Blood glucose, Normal rats, Baseline: equal to 20 mg/kg of NSAIAs.
For data set [7], the system named is mice (SLAC:NOD-IDDM, type 1 diabetes). Description: Blood glucose in type 1 diabetes mice, transdermal. Type of data set: in vivo, mouse. To be noted: for Blood glucose, Average: average fourth to seventh week, no fasting, equal to 30 mg/kg of NSAIAs once per day for 7 weeks; for Blood glucose, Baseline: equal to 30 mg/kg of NSAIAs. The text has this: The pro-drugs in this invention lower blood glucose levels in mouse models (SLAC:NOD-IDDM, type 1 diabetes, n=7). 50% acetone solution of diethylaminoethyl acetylsalicylate.acetylsalicylic acid salt (P-1, in acetone); 4-acetamidophenyl salicylyldimethylaminobutyrate.HCl (P-6), diethylaminoethyl 5-(2,4-difluorophenyl) acetylsalicylate.5-(2,4-difluorophenyl) acetylsalicylic acid salt (P-8), diethylaminoethyl salicylsalicylate.AcOH (P-9), diethylaminoethyl salicylate.AcOH (P-10), diethylaminoethyl 5-acetamido-acetylsalicylate (P-58), diethylaminoethyl acetylsalicylsalicylate. acetylsalicylsalicylic acid salt (P-59), diethylaminoethyl acetylsalicylsalicylate. acetylsalicylsalicylsalicylic acid salt (P-60) (equal to of 30 mg/kg of NSAIAs) were administered transdermally to the backs (about 1.5 cm^2) of mice (fur was shaved) once per day (at 8 am) for 7 weeks. The blood glucose levels were measured once every 3 days at 3 pm (no fasting) from the fourth week to the seventh week.

Data set [8] concerns rats. Description: Antipyretic activity, E. coli suspension as pyrogen. The data set is classed as in vivo. To be noted: in °C (unit assumed). As for the experimental part: Rats are administered with sterilized E. coli suspension as a pyrogen. Each group of rats are administered with a prodrug compounds or parent compounds at a dosage specified below. The prodrug compounds are administered either orally or transdermally. The parent compounds are administered orally.

Data set [9] deals with human skin tissue. The settings on record: human, 20 %, pH 7.4.
Data set [10] relates to mice. Description: Analgesic activity, acetic acid writhing. Type of data set: in vivo. To be noted: 30 min before acetic acid. The protocol:
The prodrug compounds are administered either transdermally or orally. The parent compounds are administered orally. The number of writhing that occurred when mice are administered the acetic acid solution are counted, and the rate of inhibition based on the control group which was not pretreated with any test compounds is calculated. […] The A group is the control group.

The nature of data set [11]: Solubility in water / aqueous solubility of HPPs and parent drugs. The settings on record: water.
Data set [12] can be described thus: Plasma levels after transdermal administration to hairless mice. The settings on record: for t, time to peak plasma level after parent compound: parent compound administered (time when taken orally); for Peak plasma concentration after parent compound: parent compound administered, hairless mice. Type of data set: in vivo. The protocol:
Tested compounds (20% solution or suspension in 1 mL isopropanol) are administered transdermally to the skin of intact hairless mice. The plasma levels of the parent compounds are determined by HPLC.

Data set [13] can be described thus: in vivo. To be noted: rat.
Description: The acute toxicity of the prodrug compounds and parent compounds are measured by LD50 of rat.
The mark [14] stands for this setting: Mus musculus, po, 50 mg/kg orally, read-out: % (rate of writhing inhibition).

In brackets after ≈: the same amount, converted by molar mass.

The term inhibition denotes the relative decrease from the control value, in per cent. A word on the solubility: it is how much of the substance goes into solution per volume. A word on the LD50: it is the dose expected to kill half of the subjects tested.
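Throughout, for LD50: acute toxicity in rats expressed as LD50, determined for both prodrugs and their parent compounds.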

For the compound `CC(=O)Nc1ccc(OC(=O)c2ccccc2OC(=O)CCCN(C)C)cc1.Cl` [P-6], in data set [1], the “Cholesterol (HDL), Baseline” value is recorded as 1.3 ± 0.1 mmol/L; the “Cholesterol (total), Baseline” value is recorded as 7.3 ± 0.5 mmol/L; the “Triglycerides, Baseline” value turned out to be 5.3 ± 0.5 mmol/L; the “Cholesterol (HDL), Average” value is 1.3 ± 0.2 mmol/L. Further, in data set [1], the “Cholesterol (total), Average” value amounted to 4.7 ± 0.4 mmol/L and the “Triglycerides, Average” value is listed as 2.3 ± 0.2 mmol/L. Moreover, in [2], the “Blood glucose, Diabetic rats, Average” value is given as 7.5 ± 2 mmol/L and the “Blood glucose, Diabetic rats, Baseline” value was found to be 16.1 ± 4 mmol/L. In data set [3], the “Blood glucose, Average” value amounted to 6.5 ± 1 mmol/L and the “Blood glucose, Baseline” value was determined as 6.8 ± 1 mmol/L. In [4], the “Cholesterol (HDL), Baseline” value worked out at 1.5 ± 0.1 mmol/L; the “Cholesterol (total), Baseline” value amounted to 7.5 ± 0.4 mmol/L; the “Triglycerides, Baseline” value worked out at 5.5 ± 0.5 mmol/L; the “Cholesterol (HDL), Average” value was found to be 1.4 ± 0.2 mmol/L. In [4], the “Cholesterol (total), Average” value worked out at 4.9 ± 0.4 mmol/L and the “Triglycerides, Average” value worked out at 1.8 ± 0.2 mmol/L. In addition, in data set [5], the “Blood glucose, Average” value is 8.5 ± 2 mmol/L and the “Blood glucose, Baseline” value was found to be 16.7 ± 4 mmol/L. In data set [6], the “Blood glucose, Normal rats, Average” value stood at 6.4 ± 1 mmol/L and the “Blood glucose, Normal rats, Baseline” value stood at 6.5 ± 1 mmol/L. In addition, in data set [7], the “Blood glucose, Average” value is listed as 9.5 ± 2 mmol/L and the “Blood glucose, Baseline” value was 27.7 ± 4 mmol/L.

Regarding `CC(=O)Oc1ccccc1C(=O)Oc1ccccc1C(=O)Oc1ccccc1C(=O)O.CCN(CC)CCOC(=O)c1ccccc1OC(=O)c1ccccc1OC(C)=O` [P-60, diethylaminoethyl acetylsalicylsalicylate.acetylsalicylsalicylsalicylic acid salt], in data set [1], the “Cholesterol (HDL), Baseline” value turned out to be 1.3 ± 0.2 mmol/L; the “Cholesterol (total), Baseline” value was determined as 7.3 ± 0.6 mmol/L; the “Triglycerides, Baseline” value came out at 5.3 ± 0.6 mmol/L; the “Cholesterol (HDL), Average” value is on record as 1.5 ± 0.2 mmol/L. Also, in [1], the “Cholesterol (total), Average” value was 5.6 ± 0.3 mmol/L and the “Triglycerides, Average” value is 2.5 ± 0.2 mmol/L. In [2], the “Blood glucose, Diabetic rats, Average” value is on record as 7.9 ± 1 mmol/L and the “Blood glucose, Diabetic rats, Baseline” value was 16.5 ± 3 mmol/L. Further, in [3], the “Blood glucose, Average” value stood at 7.5 ± 1 mmol/L and the “Blood glucose, Baseline” value stood at 6.6 ± 1 mmol/L. In data set [4], the “Cholesterol (HDL), Baseline” value was determined as 1.5 ± 0.2 mmol/L; the “Cholesterol (total), Baseline” value is reported as 7.5 ± 0.5 mmol/L; the “Triglycerides, Baseline” value amounted to 5.2 ± 0.5 mmol/L; the “Cholesterol (HDL), Average” value was 1.6 ± 0.2 mmol/L. Further, in data set [4], the “Cholesterol (total), Average” value was found to be 5.5 ± 0.3 mmol/L and the “Triglycerides, Average” value is listed as 2.5 ± 0.2 mmol/L. Also, in data set [5], the “Blood glucose, Average” value turned out to be 8.6 ± 1 mmol/L and the “Blood glucose, Baseline” value came out at 15.5 ± 3 mmol/L. Moreover, in [6], the “Blood glucose, Normal rats, Average” value was 7.3 ± 1 mmol/L and the “Blood glucose, Normal rats, Baseline” value was found to be 6.8 ± 1 mmol/L. For the same compound, in data set [7], the “Blood glucose, Average” value is recorded as 8.6 ± 1 mmol/L and the “Blood glucose, Baseline” value was 25.5 ± 3 mmol/L.

Turning to `CC(C(=O)O)c1cccc(Oc2ccccc2)c1` (stereo not drawn) [Fenoprofen, 2-(3-phenoxyphenyl) propionic acid, reference compound], in [8] (50 mg/kg orally), the “body temperature, t = 0 min” value is 37.22 ± 0.07; the “body temperature, t = 90 min” value is 36.82 ± 0.06; the “body temperature, t = 180 min” value was determined as 36.80 ± 0.05; the “body temperature, t = 270 min” value is 36.77 ± 0.08. Also, the “In vitro penetration rate (apparent flux), parent compounds” value in [9] is less than 1 μg/cm^2/h. Moreover, the “No. of Writhing” value in [10] (50 mg/kg orally) stood at 13.2. In [10] (setting [14]), the inhibition at 50 mg/kg was 62%. Also, the solubility in [11] was determined as 100 µg/mL (≈ 413 µM). For the same compound, in [12], the “t, time to peak plasma level after parent compound” value lay within 1 to 2 h and the “Peak plasma concentration after parent compound” value was 1 mg/L. This compound had an LD50 in [13] of 800 mg/kg.

Regarding `O=C(O)c1cc(-c2ccc(F)cc2F)ccc1O` [Diflunisal, 5-(2,4-difluorophenyl) salicylic acid, reference compound], in [8] (100 mg/kg orally), the “body temperature, t = 0 min” value came to 37.25 ± 0.06; the “body temperature, t = 90 min” value came to 36.81 ± 0.05; the “body temperature, t = 180 min” value is 36.82 ± 0.08; the “body temperature, t = 270 min” value amounted to 36.78 ± 0.07. Besides, in data set [8] (150 mg/kg orally), the “body temperature, t = 0 min” value was 37.35 ± 0.09; the “body temperature, t = 90 min” value is listed as 36.61 ± 0.07; the “body temperature, t = 180 min” value amounted to 36.56 ± 0.06; the “body temperature, t = 270 min” value came to 36.57 ± 0.05. Also, the “In vitro penetration rate (apparent flux), parent compounds” value in data set [9] is on record as less than 1 μg/cm^2/h. In data set [10] (50 mg/kg orally), the “No. of Writhing” value is listed as 18.1. Also, in data set [10] (100 mg/kg orally), the “No. of Writhing” value amounted to 13.2. The inhibition at 50 mg/kg in data set [10] (setting [14]) was 48%. For the same compound, the inhibition at 100 mg/kg in [10] (Mus musculus, po, 100 mg/kg orally, read-out: % (rate of writhing inhibition)) came out at 62%. Further, in data set [11], the solubility amounted to 50 µg/mL (≈ 200 µM). For the same compound, in data set [12], the “t, time to peak plasma level after parent compound” value fell in the range of 1 to 2 h and the “Peak plasma concentration after parent compound” value was 0.2 mg/L. This compound also yielded an LD50 in data set [13] of 500 mg/kg.
